One assay has as its target EZH2 (Homo sapiens (Human), UniProt Q15910). The assay can be described thus: PRC2 enzyme assay on peptide substrates. The class given is biochemical.
Details: not given
Chain of EZH2 (Q15910 other isoform, or with tags, fused parts or gaps): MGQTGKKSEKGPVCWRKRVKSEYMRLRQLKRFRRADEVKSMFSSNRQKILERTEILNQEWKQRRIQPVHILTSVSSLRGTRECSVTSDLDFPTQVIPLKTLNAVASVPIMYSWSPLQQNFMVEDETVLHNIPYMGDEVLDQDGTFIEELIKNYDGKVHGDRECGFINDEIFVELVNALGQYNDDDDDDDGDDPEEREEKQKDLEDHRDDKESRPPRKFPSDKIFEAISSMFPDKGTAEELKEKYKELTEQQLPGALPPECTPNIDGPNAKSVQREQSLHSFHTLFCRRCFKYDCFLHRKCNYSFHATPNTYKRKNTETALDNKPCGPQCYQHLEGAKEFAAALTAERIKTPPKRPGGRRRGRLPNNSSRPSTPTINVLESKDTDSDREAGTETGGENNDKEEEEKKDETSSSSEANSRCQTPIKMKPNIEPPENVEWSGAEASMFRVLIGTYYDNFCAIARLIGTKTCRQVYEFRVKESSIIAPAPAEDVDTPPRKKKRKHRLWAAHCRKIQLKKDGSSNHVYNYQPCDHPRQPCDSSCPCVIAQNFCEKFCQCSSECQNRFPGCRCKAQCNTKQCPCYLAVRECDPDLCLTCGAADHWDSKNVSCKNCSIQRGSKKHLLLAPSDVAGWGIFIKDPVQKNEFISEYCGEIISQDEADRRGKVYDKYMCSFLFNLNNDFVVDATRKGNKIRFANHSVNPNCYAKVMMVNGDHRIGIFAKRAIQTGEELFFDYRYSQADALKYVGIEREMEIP
Chain of EZH2 (O75530 whole entry partner): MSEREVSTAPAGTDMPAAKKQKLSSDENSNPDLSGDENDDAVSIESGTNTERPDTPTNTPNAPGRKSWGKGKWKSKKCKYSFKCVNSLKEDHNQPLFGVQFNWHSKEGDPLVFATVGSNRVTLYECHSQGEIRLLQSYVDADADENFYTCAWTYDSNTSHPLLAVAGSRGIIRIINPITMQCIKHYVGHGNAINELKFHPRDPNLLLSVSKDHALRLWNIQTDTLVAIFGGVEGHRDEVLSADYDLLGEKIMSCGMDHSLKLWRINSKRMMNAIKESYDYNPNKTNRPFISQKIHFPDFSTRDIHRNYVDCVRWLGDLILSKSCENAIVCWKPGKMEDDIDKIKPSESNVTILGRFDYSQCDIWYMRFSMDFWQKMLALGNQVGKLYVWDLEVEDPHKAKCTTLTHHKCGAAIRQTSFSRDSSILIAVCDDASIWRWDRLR
Chain of EZH2 (Q15022 whole entry partner): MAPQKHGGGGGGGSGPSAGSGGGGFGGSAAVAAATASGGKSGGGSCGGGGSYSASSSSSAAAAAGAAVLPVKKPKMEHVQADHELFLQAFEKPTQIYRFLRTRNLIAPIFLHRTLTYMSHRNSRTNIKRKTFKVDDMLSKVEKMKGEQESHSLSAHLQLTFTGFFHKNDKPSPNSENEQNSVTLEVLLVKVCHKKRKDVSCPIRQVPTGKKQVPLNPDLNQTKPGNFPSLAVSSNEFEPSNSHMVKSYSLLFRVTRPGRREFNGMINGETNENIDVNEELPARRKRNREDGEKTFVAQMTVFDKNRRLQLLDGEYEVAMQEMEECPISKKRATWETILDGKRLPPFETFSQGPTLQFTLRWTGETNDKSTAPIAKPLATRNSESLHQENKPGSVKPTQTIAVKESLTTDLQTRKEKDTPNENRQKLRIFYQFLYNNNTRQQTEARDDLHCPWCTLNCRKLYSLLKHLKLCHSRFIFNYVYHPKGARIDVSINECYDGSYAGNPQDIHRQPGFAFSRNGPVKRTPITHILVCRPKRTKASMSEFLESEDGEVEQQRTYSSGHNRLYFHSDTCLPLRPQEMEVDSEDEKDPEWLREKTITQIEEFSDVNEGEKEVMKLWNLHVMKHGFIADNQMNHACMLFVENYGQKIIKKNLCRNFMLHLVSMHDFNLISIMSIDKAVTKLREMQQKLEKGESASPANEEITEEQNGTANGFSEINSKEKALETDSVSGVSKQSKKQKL
Chain of EZH2 (Q09028 whole entry partner): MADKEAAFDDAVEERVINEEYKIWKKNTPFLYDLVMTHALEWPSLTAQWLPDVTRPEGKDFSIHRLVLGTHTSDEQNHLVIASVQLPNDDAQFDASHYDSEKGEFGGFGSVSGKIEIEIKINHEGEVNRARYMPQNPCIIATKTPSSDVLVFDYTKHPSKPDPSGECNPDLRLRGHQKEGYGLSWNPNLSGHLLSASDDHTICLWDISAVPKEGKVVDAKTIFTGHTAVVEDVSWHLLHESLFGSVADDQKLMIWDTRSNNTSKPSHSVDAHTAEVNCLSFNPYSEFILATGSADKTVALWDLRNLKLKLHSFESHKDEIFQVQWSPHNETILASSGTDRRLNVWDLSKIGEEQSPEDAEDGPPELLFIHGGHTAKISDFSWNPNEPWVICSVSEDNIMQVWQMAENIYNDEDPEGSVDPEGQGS
`Cc1cc(C)c(CNC(=O)c2cc(C3=CCN(C)CC3)nc3c2cnn3C(C)C)c(=O)[nH]1` [Compound B-75] had an IC50 of 300 to 1000 nM.

Staying with this assay, now noted: PRC2 enzyme assays on peptide substrates; 4 nM enzyme, 30 min preincubation at 25° C.; read-out: EZH2 IC50.
Regarding `Cc1cc(C)c(CNC(=O)c2cc(C3=CCN(C4CCN(S(C)(=O)=O)CC4)CC3)nc3c2cnn3C(C)C)c(=O)[nH]1` [Compound B-40], the IC50 lay in the range of 300 to 1000 nM.

With `Cc1cc(C)c(CNC(=O)c2cc(N3CCC(N4CCNCC4)CC3)nc3c2cnn3C(C)C)c(=O)[nH]1` [Compound B-44], the IC50 is 300 to 1000 nM.

For `Cc1cc(C)c(CNC(=O)c2cc(C3=CCN(C(=O)[C@H](C)N)CC3)nc3c2cnn3C(C)C)c(=O)[nH]1` [Compound B-46], the IC50 lay within 300 to 1000 nM.

As to `Cc1cc(C)c(CNC(=O)c2cc(C3CC(C)(C)NC(C)(C)C3)nc3c2cnn3C2COC2)c(=O)[nH]1` [Compound B-47], the IC50 lay within 300 to 1000 nM.

For `Cc1cc(C)c(CNC(=O)c2cc(N3CCC(C4CCNCC4)CC3)nc3c2cnn3C(C)C)c(=O)[nH]1` [Compound B-48], the IC50 lay within 300 to 1000 nM.

For `Cc1cc(C)c(CNC(=O)c2cc(C3=CCN(C(=O)CCN)CC3)nc3c2cnn3C(C)C)c(=O)[nH]1` [Compound B-49], the IC50 was in the range of 300 to 1000 nM.

`Cc1cc(C)c(CNC(=O)c2cc(C3=CCN(C(=O)CN(C)C)CC3)nc3c2cnn3C(C)C)c(=O)[nH]1` [Compound B-53]: the IC50 lay in the range of 300 to 1000 nM.

Turning to `Cc1cc(C)c(CNC(=O)c2cc(C3CCN(C4CCN(CCS(C)(=O)=O)CC4)CC3)nc3c2cnn3C(C)C)c(=O)[nH]1` [Compound B-55], the IC50 was in the range of 300 to 1000 nM.

Regarding `Cc1cc(C)c(CNC(=O)c2cc(C3CCN(C(=O)CN(C)C)CC3)nc3c2cnn3C(C)C)c(=O)[nH]1` [Compound B-57], the IC50 lay in the range of 300 to 1000 nM.

Regarding `Cc1cc(C)c(CNC(=O)c2cc(C3=CCNCC3)nc3c2cnn3C(C)C)c(=O)[nH]1` [Compound B-60], the IC50 was 300 to 1000 nM.

As for `Cc1cc(C)c(CNC(=O)c2cc(C3CCN(C(=O)CCN)CC3)nc3c2cnn3C(C)C)c(=O)[nH]1` [Compound B-62], the IC50 was in the range of 300 to 1000 nM.

With `Cc1cc(C)c(CNC(=O)c2cc(C3=CCN(C(=O)CN)CC3)nc3c2cnn3C(C)C)c(=O)[nH]1` [Compound B-63], the IC50 lay within 300 to 1000 nM.

As to `CC(=O)N1CC=C(c2cc(C(=O)NCc3c(C)cc(C)[nH]c3=O)c3cnn(C(C)C)c3n2)CC1` [Compound B-64], the IC50 was in the range of 300 to 1000 nM.

Regarding `Cc1cc(C)c(CNC(=O)c2cc(C3=CCN(C(=O)[C@@H](N)CO)CC3)nc3c2cnn3C(C)C)c(=O)[nH]1` [Compound B-66], the IC50 was 300 to 1000 nM.

For the molecule `Cc1cc(C)c(CNC(=O)c2cc(C3=CCN(C(=O)C(O)CN)CC3)nc3c2cnn3C(C)C)c(=O)[nH]1` (stereo not drawn) [Compound B-70], the IC50 was in the range of 300 to 1000 nM.

Consider `Cc1cc(C)c(CNC(=O)c2cc(C3CCN(CCC(F)(F)F)CC3)nc3c2cnn3C(C)C)c(=O)[nH]1` [Compound B-71], for which the IC50 is 300 to 1000 nM.

As for `Cc1cc(C)c(CNC(=O)c2cc(C3CCN(C)CC3)nc3c2cnn3C(C)C)c(=O)[nH]1` [Compound B-73], the IC50 lay within 300 to 1000 nM.

For `CNCC(=O)N1CCC(c2cc(C(=O)NCc3c(C)cc(C)[nH]c3=O)c3cnn(C(C)C)c3n2)CC1` [Compound B-76], the IC50 fell in the range of 300 to 1000 nM.

For the molecule `Cc1cc(C)c(CNC(=O)c2cc(C3CCN(C(=O)C4CNC4)CC3)nc3c2cnn3C(C)C)c(=O)[nH]1` [Compound B-77], the IC50 was in the range of 300 to 1000 nM.

On to `CC(=O)N1CCC(c2cc(C(=O)NCc3c(C)cc(C)[nH]c3=O)c3cnn(C(C)C)c3n2)CC1` [Compound B-78], for which the IC50 lay in the range of 300 to 1000 nM.

Turning to `Cc1cc(C)c(CNC(=O)c2cc(C3CCN(C(=O)CN)CC3)nc3c2cnn3C(C)C)c(=O)[nH]1` [Compound B-79], the IC50 lay within 300 to 1000 nM.

With `Cc1cc(C)c(CNC(=O)c2cc(C3=CCOCC3)nc3c2cnn3C(C)C)c(=O)[nH]1` [Compound B-80], the IC50 lay in the range of 300 to 1000 nM.

With `Cc1cc(C)c(CNC(=O)c2cc(C3=CCCCC3)nc3c2cnn3C(C)C)c(=O)[nH]1` [Compound B-81], the IC50 lay within 300 to 1000 nM.

For the molecule `Cc1cc(C)c(CNC(=O)c2cc(C3=CCN(C(=O)CO)CC3)nc3c2cnn3C(C)C)c(=O)[nH]1` [Compound B-82], the IC50 lay within 300 to 1000 nM.

For `Cc1cc(C)c(CNC(=O)c2cc(C3CCN(CCS(C)(=O)=O)CC3)nc3c2cnn3C(C)C)c(=O)[nH]1` [Compound B-83], the IC50 fell in the range of 300 to 1000 nM.

Turning to `Cc1cc(C)c(CNC(=O)c2cc(C3=CCN(CCC(F)(F)F)CC3)nc3c2cnn3C(C)C)c(=O)[nH]1` [Compound B-84], the IC50 is 300 to 1000 nM.

As to `Cc1cc(C)c(CNC(=O)c2cc(C3CCN(C(=O)CO)CC3)nc3c2cnn3C(C)C)c(=O)[nH]1` [Compound B-85], the IC50 was in the range of 300 to 1000 nM.

Take `Cc1cc(C)c(CNC(=O)c2cc(N3CCC(N(C)C)CC3)nc3c2cnn3C(C)C)c(=O)[nH]1` [Compound B-86]: the IC50 was 1000 to 3000 nM.

Consider `Cc1cc(C)c(CNC(=O)c2cc(N3CCC(N4CCOCC4)CC3)nc3c2cnn3C(C)C)c(=O)[nH]1` [Compound B-87], for which the IC50 lay in the range of 1000 to 3000 nM.

Regarding `Cc1cc(C)c(CNC(=O)c2cc(Br)nc3c2cnn3C(C)C)c(=O)[nH]1` [Compound B-88], the IC50 fell in the range of 1000 to 3000 nM.

With `Cc1cc(C)c(CNC(=O)c2cc(C3=CCN(CCS(C)(=O)=O)CC3)nc3c2cnn3C(C)C)c(=O)[nH]1` [Compound B-89], the IC50 is 1000 to 3000 nM.

As for `Cc1cc(C)c(CNC(=O)c2cc(N(C)CCCN(C)C)nc3c2cnn3C(C)C)c(=O)[nH]1` [Compound B-91], the IC50 was in the range of 1000 to 3000 nM.

Consider `Cc1cc(C)c(CNC(=O)c2cc(N3CCNCC3)nc3c2cnn3C(C)C)c(=O)[nH]1` [Compound B-92], for which the IC50 was in the range of 1000 to 3000 nM.

For the molecule `C=C(C)c1cc(C(=O)NCc2c(C)cc(C)[nH]c2=O)c2cnn(C(C)C)c2n1` [Compound B-93], the IC50 was in the range of 1000 to 3000 nM.

Regarding `Cc1cc(C)c(CNC(=O)c2cc(N3CCC(C4CCN(C)CC4)CC3)nc3c2cnn3C(C)C)c(=O)[nH]1` [Compound B-94], the IC50 fell in the range of 1000 to 3000 nM.

With `Cc1cc(C)c(CNC(=O)c2cc(N3CCC(=O)CC3)nc3c2cnn3C(C)C)c(=O)[nH]1` [Compound B-95], the IC50 lay within 1000 to 3000 nM.

`Cc1cc(C)c(CNC(=O)c2cc(C3CCN(C(=O)C(O)CN)CC3)nc3c2cnn3C(C)C)c(=O)[nH]1` (stereo not drawn) [Compound B-96]: the IC50 lay in the range of 1000 to 3000 nM.

For `C=Cc1cc(C(=O)NCc2c(C)cc(C)[nH]c2=O)c2cnn(C(C)C)c2n1` [Compound B-97], the IC50 lay within 1000 to 3000 nM.

For the molecule `Cc1cc(C)c(CNC(=O)c2cc(N3CCOCC3)nc3c2cnn3C(C)C)c(=O)[nH]1` [Compound B-98], the IC50 lay within 1000 to 3000 nM.

In the case of `Cc1cc(C)c(CNC(=O)c2cc(C3=CCN(S(C)(=O)=O)CC3)nc3c2cnn3C(C)C)c(=O)[nH]1` [Compound B-99], the IC50 was 1000 to 3000 nM.

Take `Cc1cc(C)c(CNC(=O)c2cc(C3CCN(C(=O)[C@@H](N)CO)CC3)nc3c2cnn3C(C)C)c(=O)[nH]1` [Compound B-100]: the 50% inhibitory concentration (IC50) is 1000 to 3000 nM.

As to `Cc1cc(C)c(CNC(=O)c2cc(N3CCC(N4CCN(S(C)(=O)=O)CC4)CC3)nc3c2cnn3C(C)C)c(=O)[nH]1` [Compound B-101], the IC50 fell in the range of 1000 to 3000 nM.

Take `Cc1cc(C)c(CNC(=O)c2cc(N3CCC(N4CCN(CCS(C)(=O)=O)CC4)CC3)nc3c2cnn3C(C)C)c(=O)[nH]1` [Compound B-102]: the IC50 is 1000 to 3000 nM.

As to `Cc1cc(C)c(CNC(=O)c2cc(C3=CC(C)(C)NC(C)(C)C3)nc3c2cnn3C2C=CCCC2)c(=O)[nH]1` (stereo not drawn) [Compound B-103], the 50% inhibitory concentration (IC50) was 1000 to 3000 nM.

Regarding `Cc1cc(C)c(CNC(=O)c2cc(OC(C)C)nc3c2cnn3C(C)C)c(=O)[nH]1` [Compound B-104], the IC50 lay within 1000 to 3000 nM.

As for `Cc1cc(C)c(CNC(=O)c2cc(C3CCN(C(=O)[C@H](C)N)CC3)nc3c2cnn3C(C)C)c(=O)[nH]1` [Compound B-105], the IC50 lay in the range of 1000 to 3000 nM.

For the molecule `Cc1cc(C)c(CNC(=O)c2cc(N3CCC(N4CCN(C)CC4)CC3)nc3c2cnn3C(C)C)c(=O)[nH]1` [Compound B-106], the IC50 was 1000 to 3000 nM.

For the molecule `Cc1cc(C)c(CNC(=O)c2cc(C3=CC(C)(C)NC(C)(C)C3)nc3c2cnn3C2CCNCC2)c(=O)[nH]1` [Compound B-107], the IC50 is 1000 to 3000 nM.

Take `Cc1cc(C)c(CNC(=O)c2cc(N3CCC(N4CCN(C(=O)OC(C)(C)C)CC4)CC3)nc3c2cnn3C(C)C)c(=O)[nH]1` [Compound B-108]: the IC50 lay in the range of 1000 to 3000 nM.

Consider `Cc1cc(C)c(CNC(=O)c2cc(N3CCC(N)CC3)nc3c2cnn3C(C)C)c(=O)[nH]1` [Compound B-110], for which the IC50 was in the range of 1000 to 3000 nM.

In the case of `CCOc1cc(C(=O)NCc2c(C)cc(C)[nH]c2=O)c2cnn(C(C)C)c2n1` [Compound B-112], the IC50 is 1000 to 3000 nM.

Turning to `Cc1cc(C)c(CNC(=O)c2cc(CO)nc3c2cnn3C(C)C)c(=O)[nH]1` [Compound B-113], the IC50 was in the range of 1000 to 3000 nM.

For `Cc1cc(C)c(CNC(=O)c2cc(NCCS(C)(=O)=O)nc3c2cnn3C(C)C)c(=O)[nH]1` [Compound B-114], the IC50 was 1000 to 3000 nM.

As for `Cc1cc(C)c(CNC(=O)c2cc(N3CCCCC3)nc3c2cnn3C(C)C)c(=O)[nH]1` [Compound B-115], the IC50 was in the range of 1000 to 3000 nM.

Turning to `Cc1cc(C)c(CNC(=O)c2cc(C3=CC(C)(C)NC(C)(C)C3)nc3c2cnn3C2CCN(C)CC2)c(=O)[nH]1` [Compound B-116], the IC50 was in the range of 1000 to 3000 nM.

With `CCc1cc(C(=O)NCc2c(C)cc(C)[nH]c2=O)c2cnn(C(C)C)c2n1` [Compound B-117], the IC50 fell in the range of 1000 to 3000 nM.

As for `COc1cc(C(=O)NCc2c(C)cc(C)[nH]c2=O)c2cnn(C(C)C)c2n1` [Compound B-118], the IC50 is 1000 to 3000 nM.

On to `Cc1cc(C)c(CNC(=O)c2cc(N3CCC(O)C3)nc3c2cnn3C(C)C)c(=O)[nH]1` (stereo not drawn) [Compound B-119], for which the IC50 was 1000 to 3000 nM.

For `C=C(Cn1ncc2c(C(=O)NCc3c(C)cc(C)[nH]c3=O)cc(C3=CC(C)(C)NC(C)(C)C3)nc21)C(=O)OC` [Compound B-120], the IC50 was in the range of 1000 to 3000 nM.

`CC(=O)Nc1cc(C(=O)NCc2c(C)cc(C)[nH]c2=O)c2cnn(C(C)C)c2n1` [Compound B-121]: the concentration for half-maximal inhibition (IC50) is 1000 to 3000 nM.

On to `CCc1c(C)[nH]c(=O)c(CNC(=O)c2cc(C3=CC(C)(C)NC(C)(C)C3)nc3c2cnn3C(C)C)c1C` [Compound B-122], for which the IC50 lay in the range of 3000 to 10000 nM.

Consider `Cc1cc(C)c(CNC(=O)c2cc(N3CCCC3)nc3c2cnn3C(C)C)c(=O)[nH]1` [Compound B-123], for which the half-maximal inhibitory concentration (IC50) fell in the range of 3000 to 10000 nM.

The record behind these values is patent publication US9637472B2, “Substituted 6,5-fused bicyclic heteroaryl compounds” (Epizyme, Inc., priority 2011, dated 2017).
